US20160185797A1, “ALKYNYL ALCOHOLS AND METHODS OF USE” (Genentech, Inc., priority 2013, published 2016)

Assays:
[1] = molecular target: T1, nuclear factor-kappa B (NF-kB)-inducing kinase (NIK) (Homo sapiens, UniProt Q99558); assay: NIK enzyme inhibition assay (Transcreener ADP fluorescence polarization, NIK ADP-FP); assay type: biochemical
T1 construct: made in house; host or cells: baculovirus-infected insect cells

[2] = test system: REL-A (p65) nuclear translocation in HeLa cells; assay: REL-A (p65) nuclear translocation assay in HeLa cells, TNF-α stimulated (classical NF-kB signaling), high content imaging; assay type: cell-based; details: Homo sapiens, HeLa, compound 4.5 h, then 10 ng/mL TNF-α for 30 minutes, read-out: REL-A HeLa Transloc Assay (IC50)
Method in brief: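 HeLa cells in medium with 10% fetal bovine serum were exposed to compounds (0.2% DMSO final) for 4.5 hours, then stimulated with 10 ng/mL TNF-α for 30 minutes. After fixation in 4% paraformaldehyde and permeabilization with 0.1% Triton X-100, cells were stained with 400 ng/mL anti-REL-A (p65) antibody, an Alexa488 secondary and DRAQ5. Opera imaging quantified the nuclear-to-cytoplasmic signal ratio to give IC50.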

[3] = test system: p52 (NF-kB2) nuclear translocation in HeLa cells; assay: p52 (NF-kB2) nuclear translocation assay in HeLa cells, anti-lymphotoxin beta receptor antibody stimulated (non-classical NF-kB signaling), high content imaging; assay type: cell-based; details: Homo sapiens, 100 ng/mL anti-lymphotoxin beta receptor antibody for 5 hours, read-out: p52 HeLa Transloc Assay (IC50)
Method in brief: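 HeLa cells in 10% FBS medium were treated with compound (0.2% DMSO final) and stimulated with 100 ng/mL anti-lymphotoxin beta receptor antibody for 5 h. Fixed cells were immunostained for p52 and imaged with DRAQ5 nuclear stain. Translocation is the nuclear to cytoplasmic intensity ratio, […].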

T1 sequence (Q99558 whole entry): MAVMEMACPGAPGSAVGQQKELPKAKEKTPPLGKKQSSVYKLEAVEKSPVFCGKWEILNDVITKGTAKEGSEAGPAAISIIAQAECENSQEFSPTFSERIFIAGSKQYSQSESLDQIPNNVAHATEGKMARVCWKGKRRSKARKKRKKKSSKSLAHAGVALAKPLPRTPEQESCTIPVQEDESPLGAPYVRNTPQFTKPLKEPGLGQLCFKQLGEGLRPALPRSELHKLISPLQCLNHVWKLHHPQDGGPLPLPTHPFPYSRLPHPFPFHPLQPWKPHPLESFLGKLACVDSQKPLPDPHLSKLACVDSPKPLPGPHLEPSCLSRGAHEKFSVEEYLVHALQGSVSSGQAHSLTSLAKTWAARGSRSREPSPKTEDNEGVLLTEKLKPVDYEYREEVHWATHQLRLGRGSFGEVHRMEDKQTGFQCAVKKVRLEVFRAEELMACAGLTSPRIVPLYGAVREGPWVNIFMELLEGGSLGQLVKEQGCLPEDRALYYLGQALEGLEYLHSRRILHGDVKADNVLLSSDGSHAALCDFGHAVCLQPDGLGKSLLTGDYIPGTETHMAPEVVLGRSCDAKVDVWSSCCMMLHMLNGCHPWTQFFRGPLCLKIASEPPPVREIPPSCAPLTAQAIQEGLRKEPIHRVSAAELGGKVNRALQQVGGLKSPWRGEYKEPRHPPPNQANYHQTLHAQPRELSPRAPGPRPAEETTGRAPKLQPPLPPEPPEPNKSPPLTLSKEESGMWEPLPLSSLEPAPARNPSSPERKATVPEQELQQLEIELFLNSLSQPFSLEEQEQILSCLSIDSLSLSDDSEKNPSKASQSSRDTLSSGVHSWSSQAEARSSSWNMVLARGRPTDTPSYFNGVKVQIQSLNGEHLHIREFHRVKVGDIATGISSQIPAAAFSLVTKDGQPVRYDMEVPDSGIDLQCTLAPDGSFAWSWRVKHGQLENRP

SMILES	Ki [1] [µM]	IC50 [2] [nM]	IC50 [3] [nM]
Cc1nc(-c2cccc(C#C[C@]3(O)CCN(C)C3=O)c2)nc(C(N)=O)c1N [Example 172, 5-amino-2-[3-[2-[(3R)-3-hydroxy-1-methyl-2-oxo-pyrrolidin-3-yl]ethynyl]phenyl]-6-methyl-pyrimidine-4-carboxamide]	0.00036	> 2000	78
CN1CC[C@@](O)(C#Cc2cccc(-c3cc(C(F)F)cc(C(N)=O)n3)c2)C1=O [Example 173, 4-(difluoromethyl)-6-[3-[2-[(3R)-3-hydroxy-1-methyl-2-oxo-pyrrolidin-3-yl]ethynyl]phenyl]pyridine-2-carboxamide]	0.00031	> 2000	108
CN1CC[C@@](O)(C#Cc2cccc(-c3cc(N4CCCC4=O)cc(C(N)=O)n3)c2)C1=O [Example 174, 6-[3-[2-[(3R)-3-hydroxy-1-methyl-2-oxo-pyrrolidin-3-yl]ethynyl]phenyl]-4-(2-oxopyrrolidin-1-yl)pyridine-2-carboxamide]	0.00053	> 2000	449
